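Exposure lasted 48 hours, with cells grown in 96-well plates and compounds tested at five concentrations. GI50: concentration for 50% inhibition of growth. TGI marks complete inhibition of growth.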
Experiments:
Experiment in all cases: inhibition of tumour cell growth, NCI panel, 48 h
OVCAR-8 ovarian = system: OVCAR-8 ovarian
CCRF-CEM leukemia = system: CCRF-CEM leukemia
RXF 393 renal = system: RXF 393 renal
786-0 renal = system: 786-0 renal
A549 NSCLC = system: A549 NSCLC
HCT-15 colon = system: HCT-15 colon
OVCAR-5 ovarian = system: OVCAR-5 ovarian
HT29 colon = system: HT29 colon
SNB-75 CNS = system: SNB-75 CNS
RPMI-8226 leukemia = system: RPMI-8226 leukemia
SK-MEL-2 melanoma = system: SK-MEL-2 melanoma

| Compound | TGI (OVCAR-8 ovarian) [µM] | TGI (CCRF-CEM leukemia) [µM] | TGI (RXF 393 renal) [µM] | TGI (786-0 renal) [µM] | TGI (A549 NSCLC) [µM] | TGI (HCT-15 colon) [µM] | TGI (OVCAR-5 ovarian) [µM] | TGI (HT29 colon) [µM] | TGI (SNB-75 CNS) [µM] | TGI (RPMI-8226 leukemia) [µM] | TGI (SK-MEL-2 melanoma) [µM] | GI50 (SK-MEL-2 melanoma) [µM] | GI50 (CCRF-CEM leukemia) [µM] | GI50 (RXF 393 renal) [µM] | GI50 (A549 NSCLC) [µM] | GI50 (OVCAR-5 ovarian) [µM] | GI50 (HT29 colon) [µM] |
| --- | --- | --- | --- | --- | --- | --- | --- | --- | --- | --- | --- | --- | --- | --- | --- | --- | --- |
| COc1ccc2c(c1OC)C(=O)N/C2=C\c1c(CCN(C)C)cc2c(c1OC)OCO2 | > 100 | > 100 | 84.1 | > 100 | > 100 | > 100 | > 100 | > 100 | > 100 | > 100 | – | – | – | – | – | – | – |
| O=C(NCCCN(CCCCN(CCCNC(=O)c1cc(S(=O)(=O)O)cc(O)c1O)C(=O)c1cc(S(=O)(=O)O)cc(O)c1O)C(=O)c1cc(S(=O)(=O)O)cc(O)c1O)c1cc(S(=O)(=O)O)cc(O)c1O | > 100 | > 100 | – | > 100 | > 100 | > 100 | – | > 100 | > 100 | – | > 100 | – | – | – | – | – | – |
| C=C1c2nc3ccccc3n2C=C(c2ccc(Cl)cc2)N1c1ccc(OCCN2CCCCC2)cc1 | > 45 | – | > 100 | > 45 | > 100 | > 45 | > 100 | > 100 | – | 45 | > 100 | > 100 | 0.226 | > 100 | > 100 | > 100 | > 100 |
| NC(=O)CCC(NC(=O)c1c2ccccc2nc2ccccc12)C(=O)O (stereo not given) | > 100 | > 100 | – | > 100 | > 100 | > 100 | > 100 | > 100 | > 100 | > 100 | > 100 | – | – | – | – | – | – |
| CC1=N[C@@](C)(C2CC3C=CC2C3=O)COC1=O (stereo not given in full) | > 100 | > 100 | > 100 | > 100 | > 100 | – | > 100 | > 100 | > 100 | – | – | – | – | – | – | – | – |
| CC1=CC(=O)N(n2c(Cc3ccc(Cl)cc3)n[nH]c2=O)C1=O | > 100 | 29.3 | 53.1 | > 100 | > 100 | > 100 | > 100 | 55.3 | – | 53.2 | > 100 | – | – | – | – | – | – |
| NC(CCCCNCc1ccccc1)C(=O)O (stereo not given) | > 100 | > 100 | – | > 100 | > 100 | > 100 | > 100 | > 100 | > 100 | > 100 | > 100 | – | – | – | – | – | – |
| C=CCCCC1(C)CCNC1=S (stereo not given) | > 100 | – | > 100 | > 100 | > 100 | > 100 | > 100 | > 100 | > 100 | > 100 | > 100 | – | – | – | – | – | – |
| CC(C)C(Sc1nc(-c2ccccc2)c(-c2ccccc2)[nH]1)c1n[nH]c(=S)n1-c1ccccc1 (stereo not given) | > 100 | 64.5 | – | > 100 | > 100 | > 100 | 95 | 70.3 | > 100 | 76 | 43 | – | – | – | – | – | – |
| COc1ccccc1NC(=O)CC(=O)N1N=C(c2ccccc2)C(N=Nc2ccc(Cl)cc2)C1=O (stereo not given) | > 100 | – | – | 37 | > 100 | > 100 | > 100 | > 100 | 55 | > 100 | > 100 | – | – | – | – | – | – |
